{
  "source": "patent US10086027B1",
  "about": "“Green synthesis of katononic acid nanosheets” (KING SAUD UNIVERSITY, priority 2018, dated 2018)",
  "experiment_in_all_cases": "Antimicrobial activity, diffusion agar technique",
  "format_in_all_cases": "cell-based",
  "conditions_in_all_cases": "well diameter 6.0 mm, 100 μl",
  "key": {"[1]": {"tested_on": "Candida albicans (RCMB 05036)", "protocol": "(§1) The antimicrobial effect of the katononic acid nanosheets was evaluated against gram positive bacteria, gram negative bacteria, and fungi. The diffusion agar technique was used with a well diameter of 6.0 mm and 100 μl of katononic acid nanosheets."}, "[2]": {"tested_on": "Absidia corymbffera (RCMB 02564)", "protocol": "as §1"}, "[3]": {"tested_on": "Geotricum candidum (RCMB 05097)", "protocol": "as §1"}, "[4]": {"tested_on": "Streptococcus pyogenes (RCMB 010015)", "protocol": "as §1"}, "[5]": {"tested_on": "Staphylococcus aureus (RCMB 010027)", "protocol": "as §1"}, "[6]": {"tested_on": "Staphylococcus epidermidis (RCMB 010024)", "protocol": "as §1"}, "[7]": {"tested_on": "Proteous vulgaris (RCMB 010085)", "protocol": "as §1"}, "[8]": {"tested_on": "Klebsiella pneumoniae (RCMB 0010093)", "protocol": "as §1"}, "[9]": {"tested_on": "Salmonella enteritidis (RCMB 010084)", "protocol": "as §1"}},
  "data": [
    {"compound": "C[C@@H]1[C@H](O)[C@@H](C)/C=C/C=C/C=C/C=C/C=C/C=C/C=C/[C@H](O[C@@H]2O[C@H](C)[C@@H](O)[C@H](N)[C@@H]2O)C[C@@H]2O[C@](O)(C[C@@H](O)C[C@@H](O)[C@H](O)CC[C@@H](O)C[C@@H](O)CC(=O)O[C@H]1C)C[C@H](O)[C@H]2C(=O)O", "note": "[Amphotericin B]", "values": [
      {"measurement": "Zone of Inhibition (±SD)", "setting": "[1]", "value": "25.7 ± 0.10"},
      {"measurement": "Zone of Inhibition (±SD)", "setting": "[2]", "value": "23.0 ± 0.10"},
      {"measurement": "Zone of Inhibition (±SD)", "setting": "[3]", "value": "27.0 ± 0.20"}
    ]},
    {"compound": "CC1(C)S[C@@H]2[C@H](NC(=O)[C@H](N)c3ccccc3)C(=O)N2[C@H]1C(=O)O", "note": "[Ampicillin]", "values": [
      {"measurement": "Zone of Inhibition (±SD)", "setting": "[4]", "value": "26.3 ± 0.34"},
      {"measurement": "Zone of Inhibition (±SD)", "setting": "[5]", "value": "27.3 ± 0.14"},
      {"measurement": "Zone of Inhibition (±SD)", "setting": "[6]", "value": "25.0 ± 0.18"}
    ]},
    {"compound": "Gentamycin", "values": [
      {"measurement": "Zone of Inhibition (±SD)", "setting": "[7]", "value": "23.4 ± 0.30"},
      {"measurement": "Zone of Inhibition (±SD)", "setting": "[8]", "value": "26.4 ± 0.15"},
      {"measurement": "Zone of Inhibition (±SD)", "setting": "[9]", "value": "25.2 ± 0.18"}
    ]}
  ]
}
